Laboratory results taken from patent publication US10660789B2, “1,4-dihydropyridine derivatives with HSP modulating activity” (Richter Gedeon NYRT., priority 2011, dated 2020).
Where a name gives a salt, the structure may show the parent alone.

Columns and labels:
[1] = test system: Hsp70 promoter; assay: Hsp70 promoter-YFP reporter in SHSY5Y cells, flow cytometry; assay type: cell-based, human
Experimental: The Hsp co-inducing effect of the compounds on stress response was tested on B16 mouse melanoma and SHSY5Y human neuroblastoma cell lines stably transfected with Hsp promoter probing plasmids. This kind of promoter probing, using the promoter region of a given gene conjugated with fluorescent protein is used as a best and fastest test system for finding drugs which modulate the activity of the gene followed by the given promoter (Wyshocka et al., Mol. Cel. Biochem. 215:153-156, 2000).
Reporter plasmids, containing the Hsp70 and/or Hsp25 promoter conjugated to either YFP or GFP (yellow or green fluorescent protein), were stably transfected into the cells and the expression of YFP or GFP was followed by flow cytometry. Cells were either kept at 37° C. or exposed to heat shock at 42° C. for 1 hour followed by a 16 hour recovery period at 37° C. in the presence or absence of different concentrations of the test compound. After recovery the expression of YFP or GFP which is in straight correlation with the promoter activity of Hsp70 or Hsp27 genes was followed by measuring the fluorescence intensity of the cells by flow cytometry. Fluorescence intensity is in straight correlation with the amount of fluorescent protein (GFP or YFP) produced under the control of hsp promoter. The mean fluorescence intensity of YFP or GFP produced is shown as “Hsp promoter activity”.
The fluorescence intensity of YFP produced as a result of Hsp70 promoter activity was measured by flow cytometry.
Cells were homogenously distributed on 6-well plates in 1×10^5 cells/well density. B16-pHsp25-GFP and B16-pHsp70-YFP melanoma cells were grown in RPMI-1640 medium supplemented with 10% Fetal bovine serum (FBS), penicillin (200 units/ml), streptomycin (200 μg/ml) and 2 mM L-Glutamine. […] The changes in cells' fluorescence were detected using BD FACSCalibur flow cytometer.

[2] = test system: APP mutant transgenic mice; assay: Morris water maze, wild and APP mutant transgenic mice; assay type: in vivo, mouse; settings: daily i.p. for 6 months, FIG. 6
Description: The neuro- and memoryprotective effect of the compounds of invention was studied on wild and APP mutant transgenic mice. These mice express high levels of mutant beta-amyloid and, with increasing age, develop both substantial amyloid plaque load and memory deficits. Spatial memory disfunction [with the Morris water maze (MWM) behavioural task assay] and histological assays (cell density, astroglial response, tau-pathology, amyloid-histology and dendritic spine density) in the hippocampal (HC) region (key area for the memory-function) were performed.
The Morris water navigation task is a behavioral procedure widely used in behavioral neuroscience to study spatial learning and memory. The classic measure of learning is latency, which is the time it takes to find the platform after repeating the task daily.
16 adult female APP+ transgenic and 16 adult female wild type mice were the subjects of the experiment. The animals were housed in sterile mouse cages with a natural dark/light cycle, they had free access to food and water throughout the experiment. After arrival, the mice were daily gently handled for a week. […]
Spatial learning and memory were assessed in a circular pool (diameter: 130 cm, height: 60 cm), filled with water (23±1° C.) and made opaque with milk. […]
The data were recorded and evaluated automatically by using a video tracking system. […]

For `COC(=O)C1=C(CCN(C)C)N(C)C(CCN(C)C)=C(C(=O)OC)C1c1ccc(C(F)(F)F)cc1` [Example 23, Dimethyl 4-(4-trifuoromethylphenyl)-2,6-bis-(2-dimethylaminoethyl)-1-methyl-1,4-dihydropyridine-3,5-dicarboxylate dihydrochloride], the “induction of Hsp70 gene activity” value ([1]; 20 μM, SHSY5Y cells at 42° C., FIG. 1) was “approximately 20 times”, the “activity of the promoter of the hsp70 gene at 37° C.” value ([1]; SHSY5Y cells, 37° C., no heat stress) was “does not affect the activity of the promoter of the hsp70 gene at 37 °C” and the “increase in HSP70 expression” value ([1]; SHSY5Y cells, relative to cells treated at 42° C. without the compound, FIG. 2) was 23 fold. The “spatial memory, time to find the hidden platform in Morris water maze” value [2] was “enhances the ability of both the wild type and the memory deficit mutant mice to find the hidden platform”.
